According to patent US7795290B2 (Genentech, Inc., priority 2004, dated 2010):

What follows are molecules tested against T1, AKT1 (Homo sapiens, UniProt P31749) (assay: HTS ATP-utilizing enzyme assay, off-chip mobility-shift (Caliper HTS 250)). Settings: kinase named = inhibitory activity/selectivity; test compound 10 μM; active = greater than three-sigma from mean.
T1 construct: purchased Upstate 14-276
Format: biochemical
Outline: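 AKT1 activity was measured by off-chip mobility shift (Caliper HTS 250) as the ratio of peptide substrate to phosphorylated product. Test compound was at 10 μM, with 2.5 h incubation at 20–22° C. EDTA wells served as 100% control and DMSO wells as 0%. Hits were called at three-sigma limits.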

T1 sequence (P31749 whole entry): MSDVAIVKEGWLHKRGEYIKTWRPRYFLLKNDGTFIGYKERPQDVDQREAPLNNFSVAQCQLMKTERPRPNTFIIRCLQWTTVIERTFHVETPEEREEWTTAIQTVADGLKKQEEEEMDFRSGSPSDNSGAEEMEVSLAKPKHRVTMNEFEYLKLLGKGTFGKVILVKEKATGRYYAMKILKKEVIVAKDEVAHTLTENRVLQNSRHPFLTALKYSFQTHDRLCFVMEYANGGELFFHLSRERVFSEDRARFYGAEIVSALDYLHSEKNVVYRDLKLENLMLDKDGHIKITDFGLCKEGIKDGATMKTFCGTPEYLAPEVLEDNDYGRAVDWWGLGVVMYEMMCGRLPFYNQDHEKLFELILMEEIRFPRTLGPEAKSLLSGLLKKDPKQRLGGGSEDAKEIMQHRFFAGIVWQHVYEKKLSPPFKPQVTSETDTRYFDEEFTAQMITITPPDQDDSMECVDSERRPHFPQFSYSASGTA

Row | Activity | Structure (SMILES)
1 | AKT1 | CN1CCN(C(=O)c2ccc(-c3csc(N(CCCN4CCOCC4)C(=O)c4cccs4)n3)cc2)CC1 [N-(4-(4-(4-methylpiperazine-1-carbonyl)phenyl)thiazol-2-yl)-N-(3-morpholinopropyl)thiophene-2-carboxamide]
2 | AKT1 | O=C(c1cccs1)N(CCCN1CCOCC1)c1nc(-c2ccc(OC(F)F)cc2)cs1 [N-(4-(4-(difluoromethoxy)phenyl)thiazol-2-yl)-N-(3-morpholinopropyl)thiophene-2-carboxamide]
3 | AKT1 | CN(C)C(=O)c1ccc(-c2csc(N(CCCN3CCOCC3)C(=O)c3cccs3)n2)cc1 [N-(4-(4-(dimethylcarbamoyl)phenyl)thiazol-2-yl)-N-(3-morpholinopropyl)thiophene-2-carboxamide]
4 | AKT1 | CNC(=O)c1ccc(-c2csc(N(CCCN3CCOCC3)C(=O)c3cccs3)n2)cc1 [N-(4-(4-(methylcarbamoyl)phenyl)thiazol-2-yl)-N-(3-morpholinopropyl)thiophene-2-carboxamide]
5 | AKT1 | CS(=O)(=O)c1ccc(-c2csc(N(CCCN3CCOCC3)C(=O)c3cccs3)n2)cc1 [N-(4-(4-(methylsulfonyl)phenyl)thiazol-2-yl)-N-(3-morpholinopropyl)thiophene-2-carboxamide]
6 | AKT1 | O=C(c1ccc(-c2csc(N(CCCN3CCOCC3)C(=O)c3cccs3)n2)cc1)N1CCOCC1 [N-(4-(4-(morpholine-4-carbonyl)phenyl)thiazol-2-yl)-N-(3-morpholinopropyl)thiophene-2-carboxamide]
7 | AKT1 | NC(=O)c1ccc(-c2csc(N(CCCN3CCOCC3)C(=O)c3cccs3)n2)cc1 [N-(4-(4-carbamoylphenyl)thiazol-2-yl)-N-(3-morpholinopropyl)thiophene-2-carboxamide]
8 | AKT1 | Cc1cc(-c2csc(N(CCCN3CCOCC3)C(=O)c3cccs3)n2)ccc1Cl [N-(4-(4-chloro-3-methylphenyl)thiazol-2-yl)-N-(3-morpholinopropyl)thiophene-2-carboxamide]
9 | AKT1 | O=C(c1cccs1)N(CCCN1CCOCC1)c1nc(-c2ccc(Cl)c([N+](=O)[O-])c2)cs1 [N-(4-(4-chloro-3-nitrophenyl)thiazol-2-yl)-N-(3-morpholinopropyl)thiophene-2-carboxamide]
10 | AKT1 | O=C(c1cccs1)N(CCCN1CCOCC1)c1nc(-c2ccc(Cl)cc2)cs1 [N-(4-(4-chlorophenyl)thiazol-2-yl)-N-(3-morpholinopropyl)thiophene-2-carboxamide]
11 | AKT1 | N#Cc1ccc(-c2csc(N(CCCN3CCOCC3)C(=O)c3cccs3)n2)cc1 [N-(4-(4-cyanophenyl)thiazol-2-yl)-N-(3-morpholinopropyl)thiophene-2-carboxamide]
12 | AKT1 | O=C(c1cccs1)N(CCCN1CCOCC1)c1nc(-c2ccc(F)cc2)cs1 [N-(4-(4-fluorophenyl)thiazol-2-yl)-N-(3-morpholinopropyl)thiophene-2-carboxamide]
13 | AKT1 | COc1ccc(-c2csc(N(CCCN3CCOCC3)C(=O)c3nccn3C)n2)cc1 [N-(4-(4-methoxyphenyl)thiazol-2-yl)-1-methyl-N-(3-morpholinopropyl)-1H-imidazole-2-carboxamide]
14 | AKT1 | COc1ccc(-c2csc(N(CCCN3CCOCC3)C(=O)c3cccn3C)n2)cc1 [N-(4-(4-methoxyphenyl)thiazol-2-yl)-1-methyl-N-(3-morpholinopropyl)-1H-pyrrole-2-carboxamide]
15 | AKT1 | COc1ccc(-c2csc(N(CCCN3CCOCC3)C(=O)c3cccc(C)c3)n2)cc1 [N-(4-(4-methoxyphenyl)thiazol-2-yl)-3-methyl-N-(3-morpholinopropyl)benzamide]
16 | AKT1 | COc1ccc(-c2csc(N(CCCN3CCOCC3)C(=O)c3occc3C)n2)cc1 [N-(4-(4-methoxyphenyl)thiazol-2-yl)-3-methyl-N-(3-morpholinopropyl)furan-2-carboxamide]
17 | AKT1 | COc1ccc(-c2csc(N(CCCN3CCOCC3)C(=O)c3sccc3C)n2)cc1 [N-(4-(4-methoxyphenyl)thiazol-2-yl)-3-methyl-N-(3-morpholinopropyl)thiophene-2-carboxamide]
18 | AKT1 | COc1ccc(-c2csc(N(CCCN3CCCCC3)C(=O)c3cccs3)n2)cc1 [N-(4-(4-methoxyphenyl)thiazol-2-yl)-N-(3-(piperidin-1-yl)propyl)thiophene-2-carboxamide]
19 | AKT1 | COc1ccc(-c2csc(N(CCCN3CCCC3)C(=O)c3ccccc3)n2)cc1 [N-(4-(4-methoxyphenyl)thiazol-2-yl)-N-(3-(pyrrolidin-1-yl)propyl)benzamide]
20 | AKT1 | COc1ccc(-c2csc(N(CCCN3CCCC3)C(=O)c3ccco3)n2)cc1 [N-(4-(4-methoxyphenyl)thiazol-2-yl)-N-(3-(pyrrolidin-1-yl)propyl)furan-2-carboxamide]

Row | Activity | Structure (SMILES)
21 | AKT1 | COc1ccc(-c2csc(N(CCCN3CCCC3)C(=O)c3cccs3)n2)cc1 [N-(4-(4-methoxyphenyl)thiazol-2-yl)-N-(3-(pyrrolidin-1-yl)propyl)thiophene-2-carboxamide]
22 | AKT1 | COc1ccc(-c2csc(N(CCCN3CCOCC3)C(=O)c3ccccc3)n2)cc1 [N-(4-(4-methoxyphenyl)thiazol-2-yl)-N-(3-morpholinopropyl)benzamide]
23 | AKT1 | COc1ccc(-c2csc(N(CCCN3CCOCC3)C(=O)C3CCCCC3)n2)cc1 [N-(4-(4-methoxyphenyl)thiazol-2-yl)-N-(3-morpholinopropyl)cyclohexanecarboxamide]
24 | AKT1 | COc1ccc(-c2csc(N(CCCN3CCOCC3)C(=O)C3=CCCC3)n2)cc1 [N-(4-(4-methoxyphenyl)thiazol-2-yl)-N-(3-morpholinopropyl)cyclopent-1-enecarboxamide]
25 | AKT1 | COc1ccc(-c2csc(N(CCCN3CCOCC3)C(=O)c3cccs3)n2)cc1 [N-(4-(4-methoxyphenyl)thiazol-2-yl)-N-(3-morpholinopropyl)thiophene-2-carboxamide]
26 | AKT1 | O=C(c1cccs1)N(CCCN1CCOCC1)c1nc(-c2ccc(N3CCOCC3)cc2)cs1 [N-(4-(4-morpholinophenyl)thiazol-2-yl)-N-(3-morpholinopropyl)thiophene-2-carboxamide]
27 | AKT1 | O=C(c1cccs1)N(CCCN1CCOCC1)c1nc(-c2ccc(Cl)s2)cs1 [N-(4-(5-chlorothiophen-2-yl)thiazol-2-yl)-N-(3-morpholinopropyl)thiophene-2-carboxamide]
28 | AKT1 | COc1ccc2oc(-c3csc(N(CCCN4CCOCC4)C(=O)c4cccs4)n3)cc2c1 [N-(4-(5-methoxybenzofuran-2-yl)thiazol-2-yl)-N-(3-morpholinopropyl)thiophene-2-carboxamide]
29 | AKT1 | Cc1c(-c2csc(N(CCCN3CCOCC3)C(=O)c3cccs3)n2)cnn1-c1ccccc1 [N-(4-(5-methyl-1-phenyl-1H-pyrazol-4-yl)thiazol-2-yl)-N-(3-morpholinopropyl)thiophene-2-carboxamide]
30 | AKT1 | Cc1ccc(-c2csc(N(CCCN3CCOCC3)C(=O)c3cccs3)n2)s1 [N-(4-(5-methylthiophen-2-yl)thiazol-2-yl)-N-(3-morpholinopropyl)thiophene-2-carboxamide]
31 | AKT1 | COc1ccc(-c2csc(N(CCCN3CCOCC3)C(=O)c3cccs3)n2)cn1 [N-(4-(6-methoxypyridin-3-yl)thiazol-2-yl)-N-(3-morpholinopropyl)thiophene-2-carboxamide]
32 | AKT1 | COc1cccc2cc(-c3csc(N(CCCN4CCOCC4)C(=O)c4cccs4)n3)oc12 [N-(4-(7-methoxybenzofuran-2-yl)thiazol-2-yl)-N-(3-morpholinopropyl)thiophene-2-carboxamide]
33 | AKT1 | O=C(c1cccs1)N(CCCN1CCOCC1)c1nc(-c2csc3ccccc23)cs1 [N-(4-(benzo[b]thiophen-3-yl)thiazol-2-yl)-N-(3-morpholinopropyl)thiophene-2-carboxamide]
34 | AKT1 | O=C(c1cccs1)N(CCCN1CCOCC1)c1nc(-c2ccc3c(c2)OCO3)cs1 [N-(4-(benzo[d][1,3]dioxol-5-yl)thiazol-2-yl)-N-(3-morpholinopropyl)thiophene-2-carboxamide]
35 | AKT1 | O=C(c1cccs1)N(CCCN1CCOCC1)c1nc(-c2nc3ccccc3s2)cs1 [N-(4-(benzo[d]thiazol-2-yl)thiazol-2-yl)-N-(3-morpholinopropyl)thiophene-2-carboxamide]
36 | AKT1 | Cn1cccc1C(=O)N(CCCN1CCCC1=O)c1nc(-c2cc3ccccc3o2)cs1 [N-(4-(benzofuran-2-yl)thiazol-2-yl)-1-methyl-N-(3-(2-oxopyrrolidin-1-yl)propyl)-1H-pyrrole-2-carboxamide]
37 | AKT1 | CC(CO)NC(=O)CCN(C(=O)c1cccs1)c1nc(-c2cc3ccccc3o2)cs1 (stereo not shown) [N-(4-(benzofuran-2-yl)thiazol-2-yl)-N-(3-(1-hydroxypropan-2-ylamino)-3-oxopropyl)thiophene-2-carboxamide]
38 | AKT1 | O=C(CC1NC(=O)NC1=O)NCCCN(C(=O)c1cccs1)c1nc(-c2cc3ccccc3o2)cs1 (stereo not shown) [N-(4-(benzofuran-2-yl)thiazol-2-yl)-N-(3-(2-(2,5-dioxoimidazolidin-4-yl)acetamido)propyl)thiophene-2-carboxamide]
39 | AKT1 | O=C(c1cccs1)N(CCCN1CCCCC1CCO)c1nc(-c2cc3ccccc3o2)cs1 (stereo not shown) [N-(4-(benzofuran-2-yl)thiazol-2-yl)-N-(3-(2-(2-hydroxyethyl)piperidin-1-yl)propyl)thiophene-2-carboxamide]
40 | AKT1 | CN(C)CCNC(=O)CCN(C(=O)c1cccs1)c1nc(-c2cc3ccccc3o2)cs1 [N-(4-(benzofuran-2-yl)thiazol-2-yl)-N-(3-(2-(dimethylamino)ethylamino)-3-oxopropyl)thiophene-2-carboxamide]
